The results in this text go back to patent US20050180932A1, “Ultraviolet absorption compositions” (AJINOMOTO CO. INC, priority 2002, published 2005).

Each structure is given as a SMILES string. Where a name gives a salt, the structure may show the parent alone.

Series [1] can be described thus: Wavelength at the maximum UV absorption and molar absorption coefficient (UV spectrometer, water/alcohol solution). The series is classed as physicochemical. As to conditions: for Amide-containing guanidine derivative: Mol.Abs.Coef. (ε) / Starting UV absorbent: Mol.Abs.Coef. (ε): in M-1cm-1 (unit assumed); for Amide-containing guanidine derivative: Wavelength / Starting UV absorbent: Wavelength: UV absorption maximum. Here is the method:
The wavelength showing the maximum absorption was measured by means of a UV spectrometer in a water and/or alcohol solution of R^1COOH or its salt as mentioned in detail in the Examples.
Test 1. Wavelength at the Maximum Absorption

Series [2] can be described thus: Solubility in water at room temperature. The series is classed as physicochemical.

As to `N=C(N)NCCCCNC(=O)C=Cc1ccccc1.N=C(N)NCCCCNC(=O)C=Cc1ccccc1.O=S(=O)(O)O` [Compound 1, N-cinnamoylamidobutylguanidine ½ sulfate], in series [1] (30% methanol solution), the “Amide-containing guanidine derivative: Mol.Abs.Coef. (ε)” value is given as 21885 and the “Amide-containing guanidine derivative: Wavelength” value was 280 nm.

For the compound `COc1ccc(C=CC(=O)N[C@@H](CCCNC(=N)N)C(=O)O)cc1` [Compound 3, N-paramethoxycinnamoylarginine], in series [1] (30% methanol solution), the “Amide-containing guanidine derivative: Mol.Abs.Coef. (ε)” value is listed as 24977 and the “Amide-containing guanidine derivative: Wavelength” value is given as 307 nm.

As for `CCCCCCCCCCCCOc1ccc(C=CC(=O)NCCCCNC(=N)N)cc1.Cl` [Compound 5, N-paradodecyloxycinnamoylamidobutylguanidine hydrochloride], the “Solubility of amide-containing guanidine derivative” value in series [2] is listed as >7 wt %.

Regarding `CCCCCCCCCCCCOc1ccc(/C=C/C(=O)N[C@@H](CCCNC(=N)N)C(=O)O)cc1` [Compound 6, N-paradodecyloxycinnamoylarginine], in series [1] (40% isopropyl alcohol solution), the “Amide-containing guanidine derivative: Mol.Abs.Coef. (ε)” value came to 25740 and the “Amide-containing guanidine derivative: Wavelength” value was 308 nm.

Regarding `COc1ccc(C=CC(=O)O)cc1` [Starting UV absorbent of Prep.3, p-methoxycinnamic acid, reference compound], in series [1] (30% methanol solution), the “Starting UV absorbent: Mol.Abs.Coef. (ε)” value was 20845 and the “Starting UV absorbent: Wavelength” value is recorded as 307 nm. Moreover, the “Solubility of starting UV absorbent” value in series [2] is <0.1 wt %.

Turning to `O=C(O)C=Cc1ccccc1` [Starting UV absorbent of Prep.1, cinnamic acid, reference compound], in series [1] (30% methanol solution), the “Starting UV absorbent: Mol.Abs.Coef. (ε)” value came out at 18661 and the “Starting UV absorbent: Wavelength” value is 279 nm.

Consider `CCCCCCCCCCCCOc1ccc(C=CC(=O)O)cc1` [Starting UV absorbent of Prep.4, p-dodecyloxycinnamic acid, reference compound], for which, in series [1] (40% isopropyl alcohol solution), the “Starting UV absorbent: Mol.Abs.Coef. (ε)” value is on record as 21246 and the “Starting UV absorbent: Wavelength” value was 309 nm. In series [2], the “Solubility of starting UV absorbent” value is listed as <0.01 wt %.

As to `CCCCCCCCCCCCOc1ccc(C=CC(=O)NCCCCNC(=N)N)cc1.CCCCCCCCCCCCOc1ccc(C=CC(=O)NCCCCNC(=N)N)cc1.O=S(=O)(O)O` [Compound 4, N-paradodecyloxycinnamoylamidobutylguanidine ½ sulfate], in series [1] (40% isopropyl alcohol solution), the “Amide-containing guanidine derivative: Mol.Abs.Coef. (ε)” value amounted to 24122 and the “Amide-containing guanidine derivative: Wavelength” value turned out to be 307 nm.

Turning to `Cl.N=C(N)NCCCCNC(=O)C=Cc1ccccc1` [Compound 2, N-cinnamoylamidobutylguanidine hydrochloride], the “Solubility of amide-containing guanidine derivative” value in series [2] was >15 wt %.

For `COc1ccc(C=CC(=O)N[C@@H](CCCNC(=N)N)C(=O)O)cc1` [Compound 3 (HCl salt)], the “Solubility of amide-containing guanidine derivative” value in series [2] is >15 wt %.
